In US12030878B2 (BRISTOL-MYERS SQUIBB COMPANY, priority 2017, dated 2024):

Key:
Assay type in all cases: cell-based
human TLR9 = target: T1, human TLR9 (Homo sapiens, UniProt Q9NR96); assay: TLR9 inhibition reporter assay (HEK-Blue SEAP); conditions: HEK-Blue cells overexpressing human TLR9, stimulated with ODN2006 5 nM, 22 hour incubation
T1 construct: host or cells: HEK-Blue cells
T1 sequence (Q9NR96 26-1032): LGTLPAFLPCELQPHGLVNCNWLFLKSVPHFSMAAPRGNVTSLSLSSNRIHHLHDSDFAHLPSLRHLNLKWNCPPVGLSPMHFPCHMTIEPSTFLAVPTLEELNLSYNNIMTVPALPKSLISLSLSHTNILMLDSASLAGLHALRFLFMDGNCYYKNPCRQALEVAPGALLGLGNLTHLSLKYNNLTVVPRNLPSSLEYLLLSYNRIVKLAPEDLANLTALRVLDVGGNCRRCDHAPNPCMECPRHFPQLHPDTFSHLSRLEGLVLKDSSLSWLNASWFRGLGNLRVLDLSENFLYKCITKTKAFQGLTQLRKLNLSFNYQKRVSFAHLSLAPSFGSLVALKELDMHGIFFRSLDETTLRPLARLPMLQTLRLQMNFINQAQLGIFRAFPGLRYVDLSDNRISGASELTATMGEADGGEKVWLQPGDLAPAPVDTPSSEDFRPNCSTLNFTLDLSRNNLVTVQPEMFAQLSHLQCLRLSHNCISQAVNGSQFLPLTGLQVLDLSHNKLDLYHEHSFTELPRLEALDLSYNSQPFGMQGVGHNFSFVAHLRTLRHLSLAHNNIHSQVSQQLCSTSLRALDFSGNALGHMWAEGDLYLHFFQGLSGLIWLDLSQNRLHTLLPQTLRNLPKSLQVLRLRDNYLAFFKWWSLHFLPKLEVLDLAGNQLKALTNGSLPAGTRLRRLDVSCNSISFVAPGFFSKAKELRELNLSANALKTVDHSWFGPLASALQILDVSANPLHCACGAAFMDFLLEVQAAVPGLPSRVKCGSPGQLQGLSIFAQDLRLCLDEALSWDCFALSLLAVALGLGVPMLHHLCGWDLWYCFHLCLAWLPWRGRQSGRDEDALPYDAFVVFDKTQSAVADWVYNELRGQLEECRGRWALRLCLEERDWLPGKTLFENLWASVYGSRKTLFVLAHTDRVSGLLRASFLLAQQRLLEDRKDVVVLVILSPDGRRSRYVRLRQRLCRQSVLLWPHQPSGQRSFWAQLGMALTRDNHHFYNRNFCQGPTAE
Method: (§1) TLR7/8/9 Inhibition Reporter Assays
(§2) HEK-Blue™-cells (Invivogen) overexpressing human TLR7, TLR8 or TLR9 receptors were used for screening inhibitors of these receptors using an inducible SEAP (secreted embryonic alkaline phosphatase) reporter gene under the control of the IFN-β minimal promoter fused to five NF-κB and AP-1-binding sites. Briefly, cells are seeded into Greiner 384 well plates (15000 cells per well for TLR7, 20.000 for TLR8 and 25,000 for TLR9) and then treated with test compounds in DMSO to yield a final dose response concentration range of 0.05 nM-50 μM. After a 30 minute compound pre-treatment at room temperature, the cells are then stimulated with a TLR7 ligand (gardiquimod at a final concentration of 7.5 μM), TLR8 ligand (R848 at a final concentration of 15.9 μM) or TLR9 ligand (ODN2006 at a final concentration of 5 nM) to activate NF-κB and AP-1 which induce the production of SEAP. After a 22 hour incubation at 37° C., 5% CO2, SEAP levels are determined with the addition of HEK-Blue™ Detection reagent (Invivogen), a cell culture medium that allows for detection of SEAP, according to manufacturer's specifications. The percent inhibition is determined as the % reduction in the HEK-Blue signal present in wells treated with agonist plus DMSO alone compared to wells treated with a known inhibitor.

human TLR8 = target: T2, human TLR8 (Homo sapiens, UniProt Q9NR97); assay: TLR8 inhibition reporter assay (HEK-Blue SEAP); conditions: HEK-Blue cells overexpressing human TLR8, stimulated with R848 15.9 μM, 22 hour incubation
T2 construct: host or cells: HEK-Blue cells
T2 sequence (Q9NR97 27-1041): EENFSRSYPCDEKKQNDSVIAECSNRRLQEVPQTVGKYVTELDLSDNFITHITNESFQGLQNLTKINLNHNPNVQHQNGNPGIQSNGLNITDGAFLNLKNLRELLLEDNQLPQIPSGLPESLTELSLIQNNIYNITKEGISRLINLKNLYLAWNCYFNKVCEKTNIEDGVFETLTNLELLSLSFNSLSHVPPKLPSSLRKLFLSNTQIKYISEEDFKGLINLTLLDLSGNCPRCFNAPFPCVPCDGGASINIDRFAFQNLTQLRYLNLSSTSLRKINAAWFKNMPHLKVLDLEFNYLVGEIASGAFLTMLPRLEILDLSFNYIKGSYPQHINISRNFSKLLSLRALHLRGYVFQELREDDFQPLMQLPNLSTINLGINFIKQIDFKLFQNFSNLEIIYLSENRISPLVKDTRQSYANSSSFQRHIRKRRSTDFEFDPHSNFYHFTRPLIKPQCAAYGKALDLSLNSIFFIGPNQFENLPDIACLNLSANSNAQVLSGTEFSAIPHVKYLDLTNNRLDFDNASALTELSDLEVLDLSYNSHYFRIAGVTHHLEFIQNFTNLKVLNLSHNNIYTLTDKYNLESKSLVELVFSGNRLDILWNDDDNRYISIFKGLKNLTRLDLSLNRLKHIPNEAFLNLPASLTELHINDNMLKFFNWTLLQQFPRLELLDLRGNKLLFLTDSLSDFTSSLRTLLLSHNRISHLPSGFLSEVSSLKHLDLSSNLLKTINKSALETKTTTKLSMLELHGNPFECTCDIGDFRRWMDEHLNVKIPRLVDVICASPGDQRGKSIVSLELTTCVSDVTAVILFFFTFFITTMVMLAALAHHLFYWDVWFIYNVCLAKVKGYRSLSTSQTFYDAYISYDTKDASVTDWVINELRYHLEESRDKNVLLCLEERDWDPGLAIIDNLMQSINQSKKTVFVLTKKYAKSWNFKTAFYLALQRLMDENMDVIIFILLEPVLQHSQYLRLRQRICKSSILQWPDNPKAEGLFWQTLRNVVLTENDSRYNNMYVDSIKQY
Method: as §1, §2

human TLR7 = target: T3, human TLR7 (Homo sapiens, UniProt Q9NYK1); assay: TLR7 inhibition reporter assay (HEK-Blue SEAP); conditions: HEK-Blue cells overexpressing human TLR7, stimulated with gardiquimod 7.5 μM, 22 hour incubation
T3 construct: host or cells: HEK-Blue cells
T3 sequence (Q9NYK1 27-1049): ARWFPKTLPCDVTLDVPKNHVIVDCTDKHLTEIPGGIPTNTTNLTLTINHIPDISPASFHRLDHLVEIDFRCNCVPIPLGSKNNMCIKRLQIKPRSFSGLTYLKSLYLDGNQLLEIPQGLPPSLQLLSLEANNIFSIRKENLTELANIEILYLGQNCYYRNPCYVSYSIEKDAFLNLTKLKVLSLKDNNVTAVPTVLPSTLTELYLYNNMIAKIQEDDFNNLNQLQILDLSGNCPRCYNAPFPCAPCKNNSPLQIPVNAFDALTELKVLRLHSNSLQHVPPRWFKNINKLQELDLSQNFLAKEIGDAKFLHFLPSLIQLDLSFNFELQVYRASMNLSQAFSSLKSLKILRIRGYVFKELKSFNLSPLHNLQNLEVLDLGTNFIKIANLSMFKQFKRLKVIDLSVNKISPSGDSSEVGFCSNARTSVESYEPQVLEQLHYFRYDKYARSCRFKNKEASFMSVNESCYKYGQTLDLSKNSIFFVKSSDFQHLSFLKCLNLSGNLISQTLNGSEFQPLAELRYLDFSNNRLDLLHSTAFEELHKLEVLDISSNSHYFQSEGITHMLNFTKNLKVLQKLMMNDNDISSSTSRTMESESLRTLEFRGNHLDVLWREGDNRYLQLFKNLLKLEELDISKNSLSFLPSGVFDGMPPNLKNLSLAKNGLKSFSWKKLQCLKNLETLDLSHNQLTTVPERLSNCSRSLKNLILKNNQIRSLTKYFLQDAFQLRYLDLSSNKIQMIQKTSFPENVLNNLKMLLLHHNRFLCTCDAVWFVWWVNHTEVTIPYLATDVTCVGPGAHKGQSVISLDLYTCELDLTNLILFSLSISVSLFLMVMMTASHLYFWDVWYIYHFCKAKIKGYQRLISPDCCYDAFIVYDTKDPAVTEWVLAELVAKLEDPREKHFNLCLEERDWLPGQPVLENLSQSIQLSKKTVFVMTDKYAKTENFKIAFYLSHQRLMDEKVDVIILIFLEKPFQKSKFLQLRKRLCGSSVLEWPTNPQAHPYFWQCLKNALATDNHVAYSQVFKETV
Method: as §1, §2

IC50 (human TLR9)	IC50 (human TLR8)	IC50 (human TLR7)	SMILES
8190 nM	0.5 nM	2.5 nM	Cc1cc(-c2[nH]c3ccc(OC4CCN(C5CCOCC5)CC4)cc3c2C(C)C)cn(C)c1=O [Example 39, 5-(3-isopropyl-5-((1-(tetrahydro-2H-pyran-4-yl)piperidin-4-yl)oxy)-1H-indol-2-yl)-1,3-dimethylpyridin-2(1H)-one]
5250 nM	10.8 nM	15.9 nM	Cc1cc(-c2[nH]c3ccc(O[C@H]4CCCN(C5CCOCC5)C4)cc3c2C(C)C)cn(C)c1=O [Example 40, (S)-5-(3-isopropyl-5-((1-(tetrahydro-2H-pyran-4-yl)piperidin-3-yl)oxy)-1H-indol-2-yl)-1,3-dimethylpyridin-2(1H)-one]
3440 nM	5.7 nM	1.2 nM	Cc1cc(-c2[nH]c3ccc(OCC4CCN(C)CC4)cc3c2C(C)C)cn2ncnc12 [Example 41, 6-(3-isopropyl-5-((1-methylpiperidin-4-yl)methoxy)-1H-indol-2-yl)-8-methyl-[1,2,4]triazolo[1,5-a]pyridine]
350 nM	0.4 nM	0.2 nM	Cc1cc(-c2[nH]c3ccc(OCC4CCN(C(C)C)CC4)cc3c2C(C)C)cn2ncnc12 [Example 42, 6-(3-isopropyl-5-((1-isopropylpiperidin-4-yl)methoxy)-1H-indol-2-yl)-8-methyl-[1,2,4]triazolo[1,5-a]pyridine]
> 50000 nM	1.1 nM	0.6 nM	Cc1cc(-c2[nH]c3ccc(OCC4CCN(C5COC5)CC4)cc3c2C(C)C)cn2ncnc12 [Example 43, 6-(3-isopropyl-5-((1-(oxetan-3-yl)piperidin-4-yl)methoxy)-1H-indol-2-yl)-8-methyl-[1,2,4]triazolo[1,5-a]pyridine]

Further lines, the compound ahead of its results:

SMILES	IC50 (human TLR9)	IC50 (human TLR8)	IC50 (human TLR7)
Cc1cc(-c2[nH]c3ccc(OC4CCN(C(C)C)CC4)cc3c2C(C)C)cc(C)n1 [Example 31, 2-(2,6-dimethylpyridin-4-yl)-3-isopropyl-5-((1-isopropylpiperidin-4-yl)oxy)-1H-indole]	530 nM	1 nM	2.9 nM
Cc1cc(-c2[nH]c3ccc(OC4CCN(C)CC4)cc3c2C(C)C)cn2ncnc12 [Example 32, 6-(3-isopropyl-5-((1-methylpiperidin-4-yl)oxy)-1H-indol-2-yl)-8-methyl-[1,2,4]triazolo[1,5-a]pyridine]	1620 nM	1 nM	0.9 nM
Cc1cc(-c2[nH]c3ccc(OCC4CCN(C)CC4)cc3c2C(C)C)cc(C)n1 [Example 33, 2-(2,6-dimethylpyridin-4-yl)-3-isopropyl-5-((1-methylpiperidin-4-yl)methoxy)-1H-indole]	502 nM	2.6 nM	2.8 nM
Cc1cc(-c2[nH]c3ccc(OCC4CCN(C)CC4)cc3c2C(C)C)cn(C)c1=O [Example 34, 5-(3-isopropyl-5-((1-methylpiperidin-4-yl)methoxy)-1H-indol-2-yl)-1,3-dimethylpyridin-2(1H)-one]	5550 nM	1.6 nM	2.4 nM
Cc1cc(-c2[nH]c3ccc(OCC4CCN(C(C)C)CC4)cc3c2C(C)C)cc(C)n1 [Example 35, 2-(2,6-dimethylpyridin-4-yl)-3-isopropyl-5-((1-isopropylpiperidin-4-yl)methoxy)-1H-indole]	317 nM	2.7 nM	4.9 nM
Cc1cc(-c2[nH]c3ccc(OCC4CCN(C(C)C)CC4)cc3c2C(C)C)cn(C)c1=O [Example 36, 5-(3-isopropyl-5-((1-isopropylpiperidin-4-yl)methoxy)-1H-indol-2-yl)-1,3-dimethylpyridin-2(1H)-one]	10600 nM	2.4 nM	5.6 nM
Cc1cc(-c2[nH]c3ccc(O[C@H]4CCCN(C)C4)cc3c2C(C)C)cn(C)c1=O [Example 37, (S)-5-(3-isopropyl-5-((1-methylpiperidin-3-yl)oxy)-1H-indol-2-yl)-1,3-dimethylpyridin-2(1H)-one]	46800 nM	56.3 nM	12.8 nM
Cc1cc(-c2[nH]c3ccc(O[C@H]4CCCN(C)C4)cc3c2C(C)C)cn2ncnc12 [Example 38, (S)-6-(3-isopropyl-5-((1-methylpiperidin-3-yl)oxy)-1H-indol-2-yl)-8-methyl-[1,2,4]triazolo[1,5-a]pyridine]	3640 nM	27 nM	3.6 nM
